Tested on: Klebsiella pneumoniae (ATCC BAA2146 NDM-1+)
Experiment: Neutropenic mouse thigh model of K. pneumoniae infection
Format: in vivo, mouse (CD1)
Conditions: IV 2X daily; for Group Ave. Log 10 cfu/g / Group Average (cfu/g), thigh tissue burden / Log reduction from vehicle: 24 h post infection; for No. Sterilised (5 or less colonies detected on neat plate): n = 12 thighs
Excerpt: Mice used in this study were supplied by Charles River UK and were specific pathogen free. The strain of mouse used was CD1, which is a well characterized outbred strain. Mice were 16-18 g on receipt at Euprotec's facility and were allowed to acclimatize for 7 days (target weight at the start of the experiment 22-25 g).
Klebsiella pneumoniae (ATCC BAA2146 NDM-1^+ (blandm) was used throughout the study.
In this study, 6 mice were used in each treatment group. • b) Immunosuppression
Mice were rendered temporarily neutropenic by immunosuppression with cyclophosphamide at 150 mg/kg four days before infection and 100 mg/kg one day before infection by intraperitoneal injection. The immunosuppression regime leads to neutropenia starting 24 hours post administration which continues throughout the study. • c) Infection
Antibacterial treatment was initiated 2 hours post infection (Table 3) and was administered twice (exactly 12 hours apart). An aliquot of 4% CHD-FA stock solution as adjusted to pH 5 with 10 M sodium hydroxide solution then diluted either 1:2 or 1:8 with 0.9% saline to give a dosing solution of 2% (200 mg/kg) and 0.5% (50 mg/kg) CHD-FA respectively.
Colistin was diluted in 0.9% saline to give a dosing solution of 4 mg/ml (40 mg/kg). Meropenem was diluted in 0.9% saline to give a dosing solution of 3 mg/ml (30 mg/kg). The vehicle was 0.9% saline. Following reconstitution, the suspensions were vortexed to ensure complete dissolution.
CHD-FA was administered by gavage, whereas Colistin, Meropenem and the vehicle were administered IV at 10 ml/kg (requiring individual mice to be administered ˜0.25 ml/dose). • e) Endpoints
24 hours post infection, the clinical condition of all animals was assessed prior to them being humanely euthanized. Animal weight was determined before both thighs were removed and weighed individually. Individual thigh tissue samples were homogenized in ice cold sterile phosphate buffered saline. Thigh homogenates were then quantitatively cultured on to CLED agar and incubated at 37° C. for 24 hrs and colonies counted daily. • f) Statistical Analysis
Quantitative thigh tissue burden data for CHD-FA were analysed using the statistical test Kruskal Wallis test (corrected for multiple comparisons) and compared to Colistin, Meropenem and vehicle monotherapy, plus Colistin/CHD-FA and Meropenem/CHD-FA combinations.

Row | Compound | Group Ave. Log 10 cfu/g (Meropenem 30 mg/kg) [Log 10 cfu/g] | Group Average (cfu/g), thigh tissue burden (Meropenem 30 mg/kg) [cfu/g] | Log reduction from vehicle (Meropenem 30 mg/kg) [log 10] | No. Sterilised (5 or less colonies detected on neat plate) (Meropenem 30 mg/kg) | Group Ave. Log 10 cfu/g (Colistin 40 mg/kg) [Log 10 cfu/g] | Group Average (cfu/g), thigh tissue burden (Colistin 40 mg/kg) [cfu/g] | Log reduction from vehicle (Colistin 40 mg/kg) [log 10] | No. Sterilised (5 or less colonies detected on neat plate) (Colistin 40 mg/kg)
1 | C[C@@H](O)[C@H]1C(=O)N2C(C(=O)O)=C(S[C@@H]3CN[C@H](C(=O)N(C)C)C3)[C@H](C)[C@H]12 [Meropenem] | 9.67 | 4729505542 | 1.74 | 0 |  |  |  | 
2 | Colistin |  |  |  |  | 9.14 | 1388363808 | 2.27 | 0

— US9265744B2, “Fulvic acid and antibiotic combination for the inhibition or treatment of multi-drug resistant bacteria” (NATRACINE UK LIMITED, priority 2012, dated 2016)
